Data set [1] deals with GluN1/2B. The following applies: cited from earlier work.
For data set [2], the target named is T1, σ1R (Rattus norvegicus, UniProt Q9R0C9). The following applies: Wistar rats; for %RO calculated / %RO predicted: σ1R occupancy, [18F]fluspidine. As for the experimental part: A series of doses were investigated, ranging from 0.05–15 mg/kg. […] There have been efforts to develop ligands with dual GluN1/2B and σ1R activity. Nonetheless, for the purpose of developing selective GluN1/2B ligands, one has to consider fundamentally reformulating the development strategy.
T1 sequence (Q9R0C9 whole entry): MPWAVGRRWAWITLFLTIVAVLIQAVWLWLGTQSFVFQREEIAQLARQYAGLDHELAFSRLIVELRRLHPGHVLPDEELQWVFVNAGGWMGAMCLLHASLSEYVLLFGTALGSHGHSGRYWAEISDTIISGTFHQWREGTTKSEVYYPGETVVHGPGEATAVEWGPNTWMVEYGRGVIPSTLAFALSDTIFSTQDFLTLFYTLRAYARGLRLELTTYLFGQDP
All non-aqueous reactions were performed under N2 atmosphere using flame-dried glassware and standard syringe/septa methods unless stated otherwise. Reactions were magnetically stirred and further monitored by thin layer chromatography (TLC) performed on Merck TLC aluminum sheets (silica gel 60 F254). TLC spots were visualized using UV light (λ = 254 nm) or through staining with KMnO4 solution. Chromatographic purification of products was performed using SiliaFlash P60 silica gel (Silicycle) for preparative column chromatography with a particle size of 40–63 μm (230–400 mesh). Reactions at −78 °C were cooled in a dry ice/acetone bath and reactions at 0 °C were cooled in an ice/water bath. Chemicals were purchased from ABCR, Acros Organics, Amatek Chemical, Fluorochem, Merck, Perkin Elmer and Sigma Aldrich and used without further purification. Solvents for TLC, extraction and flash column chromatography were of technical grade. Extra dry solvents for all non-aqueous reactions were supplied by Acros Organics (puriss., dried over molecular sieves, water content <0.005%). Deuterated solvents (D, 99.9%) were purchased from Cambridge Isotope Laboratories, Inc. NMR spectra of compounds 3, 7 and 8 are presented in the Supplementary Material (Section S1). Tritium labeling was performed by RC Tritec AG (Teufen, Switzerland). […] Positron emission tomography (PET) imaging was performed in Wistar rats according to a previously published procedure.
Standard uptake values (SUVs) are averaged from 0–90 min.

Data set [3] concerns the target GluN1/2B. The following applies: cited from earlier work. This is another data set of the same source.
The target in the next data set is σR. Particulars: read-out: Ki (σ1R); published value using the σR ligand [3H]3-PPP; cited from earlier work.
In data set [4] the target is T1, σ1R. As to the kind of experiment: In vitro σ1R competitive binding assay with (+)-[3H]pentazocine. Further details: from tissue; host or cells: brain of living Wistar rats (in vivo PET). The following applies: radioligand (+)-[3H]pentazocine; Wistar rat brain homogenates; 37 °C. From the text:
The mixtures were quenched with buffer and filtered through Whatman® GF/C 25 mm filters soaked with 0.05% PEI solution.

For data set [5], the target named is σ1R. The following applies: cited from earlier work.
Details of data set [6]: method as in PMID 35710735. The following applies: n = 4; cited from earlier work.
In data set [7] the target is T2, GluN1/2B (Rattus norvegicus, UniProt P35439+Q00960).
T2 construct: from tissue; host or cells: Wistar rat whole brain homogenate
T2 sequence (Q00960 27-1482, other chains not shown): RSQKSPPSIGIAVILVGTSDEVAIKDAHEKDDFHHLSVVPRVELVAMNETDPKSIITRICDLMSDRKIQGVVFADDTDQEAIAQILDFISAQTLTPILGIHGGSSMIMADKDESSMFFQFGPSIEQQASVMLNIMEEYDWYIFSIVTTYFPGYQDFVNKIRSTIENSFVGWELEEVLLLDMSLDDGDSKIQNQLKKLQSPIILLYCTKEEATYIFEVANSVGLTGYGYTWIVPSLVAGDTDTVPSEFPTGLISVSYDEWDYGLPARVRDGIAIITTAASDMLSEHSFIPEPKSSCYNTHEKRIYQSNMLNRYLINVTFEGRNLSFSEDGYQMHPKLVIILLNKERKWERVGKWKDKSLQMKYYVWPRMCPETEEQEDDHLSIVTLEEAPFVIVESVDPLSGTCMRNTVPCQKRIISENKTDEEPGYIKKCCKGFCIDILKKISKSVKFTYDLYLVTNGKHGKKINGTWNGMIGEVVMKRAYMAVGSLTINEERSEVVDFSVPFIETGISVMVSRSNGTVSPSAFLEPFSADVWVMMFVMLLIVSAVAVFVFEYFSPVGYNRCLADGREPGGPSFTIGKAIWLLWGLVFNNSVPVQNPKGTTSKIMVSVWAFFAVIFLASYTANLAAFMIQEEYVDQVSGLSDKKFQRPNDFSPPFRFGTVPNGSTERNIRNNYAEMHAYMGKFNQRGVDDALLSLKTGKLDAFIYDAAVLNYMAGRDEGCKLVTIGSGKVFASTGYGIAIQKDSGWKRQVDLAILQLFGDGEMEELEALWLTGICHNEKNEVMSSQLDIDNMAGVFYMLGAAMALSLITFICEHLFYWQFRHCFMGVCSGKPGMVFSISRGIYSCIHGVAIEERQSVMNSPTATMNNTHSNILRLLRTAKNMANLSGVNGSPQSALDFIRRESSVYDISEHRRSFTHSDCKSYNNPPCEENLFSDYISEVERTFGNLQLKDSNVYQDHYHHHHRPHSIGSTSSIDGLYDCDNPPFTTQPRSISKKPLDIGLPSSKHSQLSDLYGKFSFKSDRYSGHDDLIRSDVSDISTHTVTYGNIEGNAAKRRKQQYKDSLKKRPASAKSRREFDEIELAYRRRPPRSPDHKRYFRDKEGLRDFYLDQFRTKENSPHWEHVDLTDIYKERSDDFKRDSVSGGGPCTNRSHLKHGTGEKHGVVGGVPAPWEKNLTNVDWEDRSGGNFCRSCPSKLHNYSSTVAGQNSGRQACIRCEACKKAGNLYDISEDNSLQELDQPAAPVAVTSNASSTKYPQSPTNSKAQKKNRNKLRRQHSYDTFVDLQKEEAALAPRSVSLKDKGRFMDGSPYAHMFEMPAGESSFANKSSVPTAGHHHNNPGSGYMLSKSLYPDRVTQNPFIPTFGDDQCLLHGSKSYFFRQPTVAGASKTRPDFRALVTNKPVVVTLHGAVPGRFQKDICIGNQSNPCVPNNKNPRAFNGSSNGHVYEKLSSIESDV
Nature of the data set: In vitro GluN1/2B competitive binding assay with [3H]ifenprodil. The following applies: radioligand [3H]ifenprodil; Wistar rat brain homogenates; 25 °C. The procedure:
(§1) Competitive binding assays were performed as previously reported. […] A dilution series of the test ligands was prepared ranging from 30 µM to 300 pM. […] Each measurement vial contained 0.5 mg/mL of brain homogenate proteins, 20 µL of cold ligand, 10 µL of radioligand and was diluted to 200 µL with HEPES buffer. The vials were incubated at 25 °C and 110 rpm for 1 h. The mixtures were quenched with buffer and filtered through Whatman® GF/C 25 mm filters soaked with 0.05% PEI solution. Filters were washed twice with cold buffer and placed in scintillation vials. Scintillation vials were filled with 2 mL Ultima Gold^TM LSC cocktail and measured in a Beckmann LS6500 liquid scintillator counter.

The target of data set [8] is T2, GluN1/2B. As to the kind of experiment: In vitro GluN1/2B competitive binding assay with [3H]OF-NB1. Particulars: radioligand [3H]OF-NB1; Wistar rat brain homogenates; 25 °C. As for the experimental part: as §1
The target in a further data set is σ2R. Further details: method as in earlier work. Particulars: ref 18 (Hashimoto 2015); cited from earlier work.

Each structure is given as a SMILES string. Where two headings read alike, the source gives them in different places.

As usually defined, the Ki is the dissociation constant of the complex between target and ligand, obtained from inhibition or displacement. For the molecule `C[C@@H]([C@@H](O)c1ccc(O)cc1)N1CCC(O)(c2ccccc2)CC1` [CP-101,606], the “D50 (GluN1/2B)” value in the data set with GluN1/2B [1] is on record as 8.1 µmol/kg. The “D50 (σ1R)” value at σ1R [2] (administered dose occupying 50% of σ1Rs, [18F]fluspidine PET) amounted to 4.9 µmol/kg. At σ1R [2] (doses 0.05–15 mg/kg), the “blockade of [18F]fluspidine brain uptake” value is on record as “dose-dependent blockade”. For the same molecule, the “%RO calculated” value was 3.72% on σ1R [2] (dose 0.05 mg/kg), 61.9% at σ1R [2] (dose 3 mg/kg), 71.2% on σ1R [2] (dose 7 mg/kg) and 91.2% on σ1R [2] (dose 15 mg/kg). Besides, the “%RO predicted” value at σ1R [2] (dose 0.05 mg/kg) is listed as 2.43%; at σ1R [2] (dose 3 mg/kg), 59.2%; on σ1R [2] (dose 7 mg/kg), 77.1%; at σ1R [2] (dose 15 mg/kg) it was 87.8%. For the same molecule, the Ki is 16 nM at GluN1/2B [3] (reported literature value), 60 nM on σR and 94 ± 6 nM on σ1R [4].
Take `Oc1ccc2c(c1)CCN(CCCCc1ccccc1F)CC2O` (stereo not shown) [OF-NB1]: the results for the Ki on σ1R [5] (ref 22 (Ahmed et al. 2021)) and on GluN1/2B [3] (ref 22 (Ahmed et al. 2021)) were 410 nM and 10.4 ± 4.7 nM, respectively. In [6], the “log D7.4” value is 2.05 ± 0.08.
In the case of `COc1ccc(CCN2CCN(CCCc3ccccc3)CC2)cc1OC` [SA-4503], the values for the Ki at GluN1/2B [7] and at GluN1/2B [8] were 51 ± 13 nM and greater than 100000 nM, respectively.
For `CC(C(O)c1ccc(O)cc1)N1CCC(Cc2ccccc2)CC1` (stereo not shown) [[^3H]Ifenprodil], the figures for the Ki on σ1R [5] (ref 18 (Hashimoto 2015)), at σ2R and on GluN1/2B [3] (ref 17 (Alarcon et al. 2008)) were 13 nM, 1.89 nM and 11 nM, respectively.
